B1: X-DING-CD4: native form of X-DING-CD4 protein purified from the extracellular compartment of HIV-1 resistant T-cells, about 40 kDa (protein, listed as Homo sapiens)
chain: MADINGGGATLPQPLYQTSGVLTAGFAPYIGVGSGKGKLAFLNNDYSQFGTGTKNVHWAGSDSKLTSTELSTYASTKQAAWGKLIQVPSVATSVAIPFNKAGSNAVDLSVDQLCGVFSGRITTWNQLPATGRTGNIVVVYRNEASGTTELFTRFLTAKCVNESKKFVVTTNFADSFGVPAGAVPAVTSQGVMTKLNAGDGRITYMSPDYAAPTLAGLDDATKVAKVAGVSPAPDNVSAAIAAVPVPAAANVALQNAWVPVFAAAADANDPSVVPYPSTGFPILGFTNLIFSQ

Key:
[1] = system: HIV-1 LTR promoter; assay: Rapid Suppression Assay (RSA), PMA-induced HIV-1 LTR-driven luciferase in 1G5 cells; format: cell-based; conditions: for IC50: 1G5 cells, PMA 5 ng/ml, read-out: IC50, HIV-1 LTR promoter inhibition; for IC50, HIV-1 LTR promoter inhibition, mass concentration: Table 1
Source text: We applied the cell based Rapid Suppression Assay (RSA) for testing X-DING-CD4-induced inhibition of HIV-1 LTR promoter (Lesner et al., 2004; Lesner et al., 2005). Briefly, 1 G5 cells (obtained through the NIH AIDS Research and Reagent Program, Division of AIDS, NIAID, NIH) that are stably transfected with an inducible luciferase gene driven by HIV-1 LTR (Aguilar-Cordova et al., 1994) were washed in PBS, resuspended in hybridoma medium to concentration of 5×10^6cells/ml. For purpose of generating control titration curves, 100 μl aliquots of 1G5 cells were mixed with 100 μl cell culture medium either supplemented with various amount of rX-DING-CD4^pep (SEQ ID No: 1) or no rX-DING-CD4^pep, and incubated for three hours at 37° C. Subsequently, all cells were induced with phorbol 12-myristate 13-acetate (PMA) at a concentration of 5 ng/ml. Two control tubes containing 1G5 cells without rX-DING-CD4^pep treatment were resuspended in hybridoma medium with or without PMA. Three hours later cells were collected by centrifugation and lysed in the same tubes using Reporter Lysis buffer (Promega). The expression levels of luciferase protein in the lysates were determined according to the manufacturer's protocol. The X-DING-CD4^pep inhibition values were established based on the formula: [(LUC1-LUC0)×100/Z]−100; where LUC1 is the value obtained from cells induced by PMA and treated with a specific dilution of X-DING-CD4^pep; and LUC0 is the basal value obtained from the uninduced and untreated cells; Z is the absolute luciferase induction by PMA calculated as Z=LUCmax-LUCO3 where LUCmax is the value of 100% luciferase expression in PMA induced X-DING-CD4^pep untreated cells.
One aspect of the present invention is related to X-DING-CD4 peptide derivatives. Here we obtained 15 derivatives SED ID NOS: 1-15 by recombination or in vitro synthesis. We tested the biological activity of some these derivatives by rapid suppression assay (RSA). In XD-4M, the third amino acid glycine in the native X-DING-CD4 peptide was substituted with the polar amino acid glutamine. In XD-7, the two amino acids, cysteine and valine, replaced the three amino acids, glycine, serine and aspartic acid, in the native X-DING-CD4 peptide. In XD-12 and XD-12sh, the 69th amino acid glutamic acid in the native X-DING-CD4 peptide was methylated. In XD-9, the 69th amino acid glutamic acid in the native X-DING-CD4 peptide was substituted with the amino acid glutamine. The RSA procedure was similar to that described in Example 2. The inhibitory values are plotted in FIG. 5.
We performed the rapid suppression assay (RSA) which tests directly the inhibition of HIV-1 transcription (similar to the procedure described in Example 2), the MAGI assay which tests the inhibition of HIV-1 replication in a single cycle infection (similar to the procedure described in Example 2), and the HIV-1 infection inhibition assay in human PBLs.

[2] = system: cellular uptake of X-DING-CD4 protein; assay: Cellular uptake of X-DING-CD4 protein tested by RSA in 1G5 cells treated with uptake inhibitors; format: cell-based
Description: Cellular uptake of X-DING-CD4 protein was tested by RSA in 1G5 cells treated with chemicals affecting: (i) clatrin mediated endocytosis—[…] (CPZ); (ii) endocytosis—cytochalasin D (CCD) and chloroquine (CQ) or (iii) macropinocytosis—dimethyl amiloride (DMA). Untreated group referred to the experimental system where X-DING-CD4 mediated inhibition of transcription was measured without cellular exposure to chemicals.

[3] = system: X-DING-CD4 mRNA; assay: Induction of X-DING-CD4 mRNA expression in 1G5 cells (qRT-PCR); format: cell-based; conditions: 6 hours, 200 ng/ml
Description: The sX-DING-CD4 may be released from the macropinosome to endoplasmic reticulum (ER) and cause induction of IFNα, which in turn induces the expression of X-DING-CD4 mRNA and endogenous X-DING-CD4 protein (step 2). The induction of X-DING-CD4 mRNA by sX-DING-CD4 was tested in 1G5 cells. Briefly, three groups of 1G5 cells were treated for 6 hours with NL4-3 HIV-1 at MOI of 0.1, 200 ng/ml native X-DING-CD4 protein, and 1-126 rX-DING-CD4 peptide (i.e., rX-DING-CD4^pep), respectively. […] The eX-DING-CD4, derived from the newly synthesized X-DING-CD4, binds CN and is transported into the nucleus where it blocks LTR transcription (steps 2-7).
Two peptide fragments from the N-terminal region of X-DING-CD4 were synthesized and their activities in inducing IFN-α and X-DING-CD4 mRNA expressions were determined by qRT-PCR. The concentration of proteins used in the assays was 200 ng/ml except for the combination of XD-1 and XD-4 where we used 100 ng/ml of each peptide. The 1-126 rX-DING-CD4 and peptide C3 p16 served as positive and negative controls, respectively. The C3 Peptide P16 was derived from the C3d component of serum complement. C3 Peptide P16 regulates B cells, but not T cells, through interacting with the gp140 C3d receptor (CR2).

[4] = system: NL4-3 HIV-1 isolate; assay: HIV-1 infection inhibition assay in human PBLs, intracellular p24 core antigen ELISA; format: cell-based; conditions: 1 μg/ml protein, seven days after infection
Description: In addition, we measured the inhibitory activities of these four proteins in HIV-1-infected peripheral blood lymphocytes (PBLs). The cells are treated separately with the proteins and the replication of virus was measured five and seven days later by assessing the intracellular levels of p24 core protein. PBLs were obtained by elutriation from the whole blood of healthy, HIV-1 negative volunteers. Before the experiment, cells were stimulated for 2 days in Dulbecco's modified Eagle medium (DMEM) supplemented with 10% fetal bovine serum (FBS), phytohemaglutinin (PHA, 5 μg/ml; Sigma), interleukin 2 (10 U/ml; R&D Systems), antibiotics and glutamate. Subsequently, cells were cultured without PHA. Briefly, 3×10^6 PBLs/well in a 24-well plate (Costar Scientific) were cultured in 1 ml RPMI medium supplemented with antibiotics, glutamate and 1 μg/ml of each protein, respectively. Six hours after the initial exposure to the protein treatments, the culture medium was supplemented with 3%/Vol FBS. […] Replication of virus was evaluated at five and seven days after infection by Elisa assay of the intracellular HIV-1 p24 core antigen (Perkin Elmer). The viability of cells was assessed by the dye exclusion method (Strober, 2001) at 1, 2, 3, 5 and 7 days after protein treatments.

[5] = Acute toxicity after intraperitoneal injection in mice; format: in vivo, mice (B6/SJL); conditions: 1-50 μg rX-DING-CD4^pep or 50 μg nX-DING-CD4, 7 days
Description: In the animal tests, eight-week old wild-type mice (B6/SJL) with both genders in each test group were injected intraperitoneally with 1-50 μg of rX-DING-CD4^pep or 50 μg nX-DING-CD4. The nX-DING-CD4 refers to the native form of X-DING-CD4 protein that was purified through IXC chromatography from the extracellular compartment of HIV-1 resistant T-cells. The rX-DING-CD4^pep refers to therapeutic X-DING-CD4 peptide that was expressed in E. coli and purified through Ni-affinity column. Toxicity was assessed by obvious symptoms including diarrhea, ruffled fur, abnormal gait, or loss of more than 10% weight. Animals were weighted before injection and then observed every hour for the first 10 hours after injection; then animals were weighted on 1, 3, 4 and 7 days after X-DING-CD4 administration. […] In its highest administered dose (50 μg—corresponding to 2 μg/G) we exceeded therapeutic dose blocking 95% of HIV promoter activity (by RSA assays) and 90% virus replication (by MAGI assays) (See FIGS. 2 & 3 in Example 2).

[6] = system: NL4-3 HIV-1 isolate; assay: MAGI assay of HIV-1 replication in MAGI-CCR-5 cells; format: cell-based; conditions: DING family proteins, FIG. 16B
Description: The antiviral activity of rX-DING-CD4^pep was tested by MAGI assay. […] Subsequently, cells were exposed to rX-DING-CD4^pep treatment in the presence of DMEM supplemented with 5% fetal bovine serum, antibiotics, glutamate and […] DEAE dextran. […] Replication of virus was evaluated forty eight hours later after fixation of cells with 1% formaldehyde and 0.2% glutaraldehyde in PBS. Expression of β-galactosidase was visualized by 50 min exposure to X-GAL (5-bromo-4-chloro-3-indolyl-β-D-galactopyranoside), 0.4 mg/ml 2 mM MgCl2, 4 mM potassium ferricyanide at 37° C. After enumeration of the infected (blue) cells, all cells were lysed and subjected to the protein assay (Bio-Rad). All data were adjusted by total protein concentration and anti-viral activity was calculated as percent inhibition. The infected untreated and uninfected cells served as (+) and (−) controls to calculate 100% virus infectivity. The inhibition values for HIV-1 replication were calculated based on the formula [(R1−R0)×100/Z]-100; where R1 is the value obtained from cells infected by HIV-1 and treated with specific dilution of X-DING-CD4^pep and R^0 is the basal value obtained from the uninfected and untreated cells; Z is the absolute HIV-1 replication value calculated as Z═Rmax−R0, where Rmax is the value representing 100% of HIV-1 replication in X-DING-CD4^pep untreated cells.

| Molecule | IC50 ([1]; RSA) [nM] | IC50, HIV-1 LTR promoter inhibition, mass concentration ([1]; RSA) | other results |
| --- | --- | --- | --- |
| LLSTY [XD-15sh] | 157 | (93.5 ng/ml) | – |
| DINGGGATLPQK [XD-1] | 51.2 | (60 ng/ml) | – |
| KNVHWAGSDSKLTSTELSTY [XD-4] | 31 | (70 ng/ml) | – |
| CCN(CC)CCCC(C)Nc1ccnc2cc(Cl)ccc12 (stereo not shown) [CQ, chloroquine] | – | – | effect of uptake inhibitor on sX-DING-CD4 inhibition of LTR transcription [2]: still demonstrated inhibitory effects of sX-DING-CD4 on LTR transcription |
| GTKNVHWAGSDSKLTSTELSTYC [XD-5] | 35.8 | (88.7 ng/ml) | – |
| GTKNVHWACVSKLTSTELSTY [XD-7] | 29.8 | (69.3 ng/ml) | – |
| GVSNKNVHWAGSDSKLTATE(OMe)LSTY [XD-12] | 33.7 | (86.2 ng/ml) | – |
| CN(C)CCCN1c2ccccc2Sc2ccc(Cl)cc21 [CPZ, Chromopromazine] | – | – | effect of uptake inhibitor on sX-DING-CD4 inhibition of LTR transcription [2]: still demonstrated inhibitory effects of sX-DING-CD4 on LTR transcription |
| GVSNKNVHWAGSDSKLTAT [XD-14] | 36.8 | (72.5 ng/ml) | – |
| GVSNKNVHWAGSDSKLTATQLSTY [XD-13] | 30.2 | (77.5 ng/ml) | – |
| C=C1[C@@H](C)[C@H]2[C@H](Cc3ccccc3)NC(=O)[C@]23[C@H](OC(C)=O)/C=C/[C@@](C)(O)C(=O)[C@@H](C)C/C=C/[C@H]3[C@@H]1O [CCD, cytochalasin D] | – | – | effect of uptake inhibitor on sX-DING-CD4 inhibition of LTR transcription [2]: still demonstrated inhibitory effects of sX-DING-CD4 on LTR transcription |
| CN(C)c1nc(N)c(C(=O)N=C(N)N)nc1Cl [DMA, dimethyl amiloride] | – | – | effect of uptake inhibitor on sX-DING-CD4 inhibition of LTR transcription [2]: abolished the inhibitory effect of sX-DING-CD4 on LTR transcription |
| QLSTY [XD-13sh] | 121 | (74 ng/ml) | – |
| GVSNKNVHWAGSDSKLTATLLSTY [XD-15] | 36.7 | (93.5 ng/ml) | – |
| DINGGQTLPQK [XD-4M] | 57 | (66.9 ng/ml) | – |
| YTSLE [XD-12sh, YTSLE(OMe)] | 121 | (74 ng/ml) | – |
| B1 | – | – | expression of X-DING-CD4 mRNA [3]: induced expression of X-DING-CD4 mRNA; reduction of HIV-1 replication (p24) [4]: about 11 fold; IC50 RSA ([1]; DING family proteins): 0.052 µg/mL; HIV-1 LTR IC50 ([1]; RSA, DING family proteins, FIG. 16A): 0.052 µg/mL; obvious symptoms of toxicity (diarrhea, ruffled fur, abnormal gait) [5]: Neither of rX-DING-CD4^pep treatment nor nX-DING-CD4 treatment caused any obvious symptoms; IC50, HIV-1 replication (MAGI) [6]: 0.075 µg/mL |

Source: patent publication US20140018288A1, “X-DING-CD4 Peptide” (priority 2012, published 2014)
